Among the test systems are NCI-H226; SW-620; MDA-N; U-251; MDA-MB-435; OVCAR-5; HCT-15; SF-268; UACC-62; SNB-75; OVCAR-4; SK-MEL-28; BT-549; UACC-257; SN12C; RXF 393; A549; Malme-3M; SNB-19; NCI/ADR-RES.
Holding throughout (experiment): inhibition of tumour cell growth, NCI panel, 48 h

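Cultured in 96-well plates, cells were exposed to test compound for 48 hours across five concentrations. Abbreviation: GI50, concentration required for 50% inhibition of growth.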 Active and inactive are the calls of the source. No stated cut-off is given here; in the data, active = GI50 up to about 1.1 µM and inactive = higher.

In the case of `COc1ccc(-c2nc(N)c(C#N)c3c2CCSc2ccc(C)cc2-3)cc1OC`, the GI50 in the test on NCI-H226 is 14.8 µM (inactive); in the test on SW-620, 22.1 µM (inactive); in the test on MDA-N, 3.79 µM (inactive); in the test with U-251 it was 18.1 µM (inactive); with MDA-MB-435, 4.61 µM (inactive); with OVCAR-5 it was 47.2 µM (inactive). In addition, the GI50 with HCT-15 is 9.4 µM; with SF-268, 17.2 µM (inactive); with UACC-62, 10.9 µM (inactive); with SNB-75, 10.7 µM (inactive); in the test with OVCAR-4, 16.7 µM (inactive); in the test on SK-MEL-28, 39.7 µM (inactive). Further, the GI50 in the test on BT-549 was 8.59 µM (inactive); with UACC-257 it was 13.8 µM (inactive); in the test on SN12C, 17.3 µM (inactive); with RXF 393, 13.7 µM (inactive); with A549, 12.3 µM (inactive); in the test with Malme-3M, 20.5 µM (inactive). For the same compound, the GI50 with SNB-19 is 31.3 µM (inactive); in the test on NCI/ADR-RES, 12.3 µM (inactive).
